Results on 20 compounds are retold here after patent US20260234137A1, “BICYCLIC ENHANCERS OF THE PARTICULATE GUANYLYL CYCLASE RECEPTOR A” (University of Florida Research Foundation, Incorporated, priority 2022, published 2026).

For series [1], the target named is T1, human GC-A (Homo sapiens, UniProt P16066).
T1 construct: host or cells: HEK293
T1 sequence (P16066 33-1061): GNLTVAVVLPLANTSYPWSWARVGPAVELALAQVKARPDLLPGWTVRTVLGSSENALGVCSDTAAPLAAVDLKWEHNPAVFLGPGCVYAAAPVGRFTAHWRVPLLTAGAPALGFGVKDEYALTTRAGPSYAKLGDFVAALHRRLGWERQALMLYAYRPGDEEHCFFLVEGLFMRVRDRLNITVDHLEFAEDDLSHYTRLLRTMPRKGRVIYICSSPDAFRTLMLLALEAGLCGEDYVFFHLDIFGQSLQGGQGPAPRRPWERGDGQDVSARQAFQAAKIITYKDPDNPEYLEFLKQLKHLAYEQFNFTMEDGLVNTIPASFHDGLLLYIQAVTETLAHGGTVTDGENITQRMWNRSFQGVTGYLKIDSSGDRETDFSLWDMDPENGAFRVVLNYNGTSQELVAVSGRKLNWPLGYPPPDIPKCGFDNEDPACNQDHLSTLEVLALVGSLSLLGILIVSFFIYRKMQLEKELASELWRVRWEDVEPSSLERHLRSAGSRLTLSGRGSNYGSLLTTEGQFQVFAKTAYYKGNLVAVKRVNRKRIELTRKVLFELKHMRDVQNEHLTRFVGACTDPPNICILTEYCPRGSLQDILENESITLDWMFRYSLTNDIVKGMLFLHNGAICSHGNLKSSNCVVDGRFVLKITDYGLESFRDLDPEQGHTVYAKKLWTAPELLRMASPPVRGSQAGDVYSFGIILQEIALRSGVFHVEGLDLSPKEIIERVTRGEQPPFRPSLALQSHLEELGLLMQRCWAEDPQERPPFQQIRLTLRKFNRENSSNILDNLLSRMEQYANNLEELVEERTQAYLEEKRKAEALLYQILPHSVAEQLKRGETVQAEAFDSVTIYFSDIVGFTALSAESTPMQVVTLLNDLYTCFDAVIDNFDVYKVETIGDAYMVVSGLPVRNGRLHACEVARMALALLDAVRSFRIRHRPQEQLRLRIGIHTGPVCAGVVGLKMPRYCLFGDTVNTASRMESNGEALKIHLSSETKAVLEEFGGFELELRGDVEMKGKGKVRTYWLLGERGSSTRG
T1 sequence (P01160 124-151 partner limits assumed): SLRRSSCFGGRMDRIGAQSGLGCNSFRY
Put plainly: cGMP potentiation (HTRF) in human GC-A overexpressing HEK293 cells with EC20 ANP. It is filed as cell-based. The note with it: for IC50: Table 3, additional compounds, modulation of pGC-A; for Emax: HEK293. The procedure:
Test compounds were evaluated for potentiation of cGMP in human GC-A overexpressing HEK293 cells (Cardiorenal Research Laboratory, Mayo Clinic). Test compounds at 10 mM DMSO stock concentration were dispensed into 384 well small volume white plates using Tecan D300e digital dispenser starting at 5 μM concentration and diluted 2-fold for 10-point concentration response. Wells were backfilled with DMSO such that the final concentration of DMSO in all wells was maintained at 0.3% DMSO. Atrial natriuretic peptide (ANP, Phoenix Pharmaceuticals) peptide ANP was prepared as working stock aliquots at 5 μM in phosphate-buffered solution (PBS) with 0.1% bovine serum albumin (BSA) and diluted to […] in buffer+Tween20 at 0.3% and added to plates to a final concentration of 20 pM (EC20). GC-A cells in suspension […] in OptiMem media (11058-021) supplemented with 2% fetal bovine serum were plated at 1×10^6 cells/mL and assay plates were spun at 1000 rpm for 30 sec and incubated at RT for 30 min. GC-A-mediated activation of cGMP production was measured using cGMP CisBio detection homogenous time-resolved florescence (HTRF) competition assay using labeled-cGMP in human GC-A-overexpressing HEK293 cells. 5 μL of d-2 acceptor was dispensed into each well followed by addition of 5 μL of Anti-cGMP Eu-Cryptate antibody donor and plates were spun at 1000 rpm for 30 sec and incubated in the dark at RT for 1 hr. HTRF florescence was read on the ClarioStar microplate reader (BMG). A 100% response was determined from wells in the absence of compound and presence of saturating concentration of ANP (10 nM), and 0% response was determined from wells containing an EC20 concentration of ANP determined for each new lot of ANP. EC20 values of ANP were maintained in the range of 15-30 pM across all assay plates tested.
Test compounds were tested in the absence of ANP to determine agonist activity.

In series [2] the target is hERG channel (Homo sapiens, UniProt Q12809). As to the kind of experiment: hERG binding / selectivity over hERG.
For series [3] the following is noted: cited from earlier work.
[4] abbreviates: Table 1, 100% = saturating ANP (10 nM), 0% = EC20 ANP, read-out: Emax (%).
The mark [5] stands for this setting: Table 1, Formula (I-a), cGMP potentiation, ANP at EC20, read-out: EC50.

Each structure is given as a SMILES string. “Also recorded” adds a separate entry of the source. Read-outs that look alike come from different tables or passages of the source.

Sequence of hERG channel (Q12809 whole entry): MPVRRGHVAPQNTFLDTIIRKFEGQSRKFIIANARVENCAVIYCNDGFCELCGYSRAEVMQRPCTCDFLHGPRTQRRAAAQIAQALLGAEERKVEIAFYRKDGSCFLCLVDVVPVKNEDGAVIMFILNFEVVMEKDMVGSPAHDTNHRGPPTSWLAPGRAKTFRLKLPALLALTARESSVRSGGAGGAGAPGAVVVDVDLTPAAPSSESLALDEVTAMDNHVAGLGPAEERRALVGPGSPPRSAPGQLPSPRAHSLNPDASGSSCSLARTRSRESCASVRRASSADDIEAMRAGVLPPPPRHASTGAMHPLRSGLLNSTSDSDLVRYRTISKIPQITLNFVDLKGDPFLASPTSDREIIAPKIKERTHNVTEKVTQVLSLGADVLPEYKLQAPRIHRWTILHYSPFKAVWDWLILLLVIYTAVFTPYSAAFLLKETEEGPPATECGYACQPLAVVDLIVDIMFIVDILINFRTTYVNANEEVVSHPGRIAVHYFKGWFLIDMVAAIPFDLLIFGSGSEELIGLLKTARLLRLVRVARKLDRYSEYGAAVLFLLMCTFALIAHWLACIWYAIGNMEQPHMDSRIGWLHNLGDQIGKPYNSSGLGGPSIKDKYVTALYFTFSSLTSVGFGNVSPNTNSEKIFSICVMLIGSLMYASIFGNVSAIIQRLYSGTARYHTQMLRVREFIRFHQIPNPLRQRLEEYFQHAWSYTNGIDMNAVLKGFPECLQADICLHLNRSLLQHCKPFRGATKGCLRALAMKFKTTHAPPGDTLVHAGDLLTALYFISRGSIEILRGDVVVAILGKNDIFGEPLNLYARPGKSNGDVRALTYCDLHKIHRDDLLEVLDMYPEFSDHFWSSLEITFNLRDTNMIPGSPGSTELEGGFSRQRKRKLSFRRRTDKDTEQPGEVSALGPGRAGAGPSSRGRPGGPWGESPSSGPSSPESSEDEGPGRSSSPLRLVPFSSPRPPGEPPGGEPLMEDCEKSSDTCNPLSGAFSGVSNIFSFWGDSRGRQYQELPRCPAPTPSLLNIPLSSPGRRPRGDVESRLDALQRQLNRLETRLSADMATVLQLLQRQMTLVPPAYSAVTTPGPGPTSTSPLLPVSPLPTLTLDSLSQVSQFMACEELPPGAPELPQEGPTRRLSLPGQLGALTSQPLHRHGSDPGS

With `CN(C)CCN1CCCC(C(=O)Nc2nc3c(F)cc(C(F)(F)F)cc3s2)C1` (centres unmarked) [JUF-S3-004], in series [1], the IC50 was greater than 5 µM.
With `Cc1cc(F)c2nc(NC(=O)C3CCCN(CCN(C)C)C3)sc2c1` (centres unmarked) [JUF-S3-005], in series [1], the IC50 was determined as 0.9 µM.
In the case of `COc1cc(F)c2nc(NC(=O)C3CCCN(CCN(C)C)C3)sc2c1` (centres unmarked) [JUF-S3-006], the Emax in series [1] (Table 3, 100% = saturating ANP (10 nM), 0% = EC20 ANP, read-out: Emax (%)) was found to be 112%. The IC50 in series [1] was found to be 6.7 µM.
On to `CCOc1cc(F)c2nc(NC(=O)C3CCCN(CCN(C)C)C3)sc2c1` (centres unmarked) [JUF-S3-010], for which the IC50 in series [1] is greater than 5 µM.
For `CN(C)c1ccc(N2CCCC(C(=O)Nc3nc4c(F)cc(F)cc4s3)C2)cc1` (centres unmarked) [JUF-S4-009], in series [1], the “GC-A activity (in words)” value is recorded as “active”.
For `O=C(Nc1nc2c(F)cc(F)cc2s1)C1CCCN(CCn2cccn2)C1` (centres unmarked) [JUF-S4-012], the “GC-A activity (in words)” value in series [1] was “tolerated”. Moreover, in series [1] (Table 1), the LLE stood at 2.91.
Consider `O=C(Nc1nc2c(F)cc(F)cc2s1)C1CCCN(CCN2CCCC2=O)C1` (centres unmarked) [JUF-S4-014], for which the “GC-A activity (in words)” value in series [1] is “loss of activity”. In series [1] (setting [4]), the Emax was determined as 105%.
`CN1CCC(N2CCCC(C(=O)Nc3nc4c(F)cc(F)cc4s3)C2)C1` (centres unmarked) [JUF-S4-015]: the maximal effect (Emax) in series [1] (setting [4]) came out at 89%. In addition, in series [1] (Table 1), the LLE is listed as 4.09- 4.39. For the same compound, the EC50 in series [1] (setting [5]) worked out at 0.13 µM.
As for `CN1CCCC(N2CCCC(C(=O)Nc3nc4c(F)cc(F)cc4s3)C2)C1` (centres unmarked) [JUF-S4-016], the Emax in series [1] (setting [4]) was found to be 97%.
For `Cn1cc(N2CCCC(C(=O)Nc3nc4c(F)cc(F)cc4s3)C2)cn1` (centres unmarked) [JUF-S4-023], the Emax in series [1] (setting [4]) was 81 to 86%. Also, the EC50 in series [1] (setting [5]) was 2.1 to 4.9 µM.
On to `O=C(Nc1nc2c(F)cc(F)cc2s1)C1CCCN(c2cccnc2)C1` (centres unmarked) [JUF-S4-025], for which the Emax in series [1] (setting [4]) is 104 to 135%. Besides, the EC50 in series [1] (setting [5]) was in the range of 2.5 to 7.4 µM.
As to `O=C(Nc1nc2c(F)cc(F)cc2s1)C1CCCN(c2ccncc2)C1` (centres unmarked) [JUF-S4-026], the “GC-A activity (in words)” value in series [1] is recorded as “active; also recorded: more active than MCUF-651”. Also, the LLE in series [1] (Table 1) is listed as 3.28- 3.72. The “hERG binding (in words)” value in series [2] is recorded as “did not result in selectivity over hERG binding”.
For the compound `O=C(Nc1nc2c(F)cc(F)cc2s1)C1CCCN(C2CNC2)C1` (centres unmarked) [JUF-S4-029A], in series [1] (setting [4]), the Emax lay in the range of 84 to 89%. In addition, the EC50 in series [1] (setting [5]) lay within 0.08 to 0.2 µM.
Regarding `CN1CC(N2CCCC(C(=O)Nc3nc4c(F)cc(F)cc4s3)C2)C1` (centres unmarked) [JUF-S4-029], the “GC-A activity (in words)” value in series [1] is given as “high potency in activation of GC-A”. Moreover, in series [1] (Table 1), the LLE was 5.11. Also, the “potency in activation of GC-A relative to MCUF-651” value in series [1] (compared to MCUF-651) is listed as ~ 10 fold. In series [2], the “hERG binding (in words)” value is listed as “did not eliminate hERG binding”; the “toxicity from binding at hERG channel and other off-target toxicity (in words)” value is recorded as “reduced toxicity”. Also, the selectivity ratio in series [2] (human, compared to MCUF-651, read-out: selectivity for GC-A vs hERG relative to MCUF-651) lay in the range of 50 to 100.
For the compound `CN(C)CCN1CC(C(=O)Nc2nc3c(F)cc(F)cc3s2)CCC1=O` (centres unmarked) [JUF-S11-001], the EC50 in series [1] (Table 2, Formula (I-b), cGMP potentiation, ANP at EC20, read-out: EC50) is greater than 5 µM.
For the compound `O=C(Nc1nc2c(F)cc(F)cc2s1)C1CNCCN1C(=O)OCc1ccccc1` (centres unmarked) [JUF-S11-002A], the IC50 in series [1] is greater than 5 µM.
Take `O=C(Nc1nc2c(F)cc(F)cc2s1)C1CNCCO1` (centres unmarked) [JUF-S11-003A]: the IC50 in series [1] is greater than 5 µM.
As to `CN(C)CCN1CCOC(C(=O)Nc2nc3c(F)cc(F)cc3s2)C1` (centres unmarked) [JUF-S11-003], the IC50 in series [1] is greater than 5 µM.
Turning to `CN(C)CCN1CCCC(C(=O)Nc2nc3c(F)cc(F)cc3s2)C1` (centres unmarked) [MCUF 651, reference compound], in series [1] (FIG. 2, titrated on each 384-test plate), the “Emax values of internal control” value is 80-100 % response. The EC50 in series [1] (FIG. 2, titrated on each 384-test plate, read-out: Acceptable EC50 values of internal control) was in the range of 0.2 to 0.6 µM.
Consider `CN(C)CCN1CCCC(C(=O)Nc2nc3c(F)cc(F)cc3s2)C1` (centres unmarked) [MCUF-651], for which the Emax in series [1] (control on each assay plate, read-out: Emax range of control compound) was in the range of 75 to 85%. Also, the “in vivo activity (in words)” value in series [3] is recorded as “active in vivo”. Also, the “oral bioavailability (in words)” value in series [3] (in vivo, po) is recorded as “orally bioavailable”.
